Laboratory results: US9821000B2, “Compounds, compositions and corresponding uses for preventing and/or treating of dyslipidemia” (CENTRE NATIONAL DE LA RECHERCHE SCIENTIFIQUE (CNRS), priority 2013, dated 2017)
“Also recorded” adds a separate entry of the source.

Columns and labels:
QM strain = test: Toxicity test on QM strain (growth inhibition haloes); format: cell-based, Saccharomyces cerevisiae; conditions: after three days; for toxicity for cells that do not synthesize triglycerides: QM strain on agar medium; for haloes of growth inhibition (absence of colonies): QM strain, 5 μl drops on agar
Description: 5 μl drops of OAG, LPA or oleic acid were deposited, from stock solutions in the concentrations indicated, on the surface of an agar medium on which the QM strain had been preliminarily spread. […] These haloes are on the contrary not observed in the presence of LPA and OAG.
At the same time, wild strains (WT) and QM are cultivated in aerobic conditions under stirring and at 28° C., in a YPG liquid medium before seeding 3500 cells per cm^2 of YPG+agar 2% (m/v). Following this transfer to solid medium, 1 μL drops of solutions of different compounds at 1, 10 and 100 mM in DMSO or EtOH are deposited on the surface of the agar. Separately, deposits of DMSO and EtOH are also made in order to assess the intrinsic toxicity of these two solvents. After three days of culture of 28° C., the toxicity of the tested compounds is evaluated by comparing the diameters of the growth inhibition haloes obtained for the deposits of undissolved solvents with those of the deposits of different concentrations of compounds tested.

hem1Δ yeasts = test: Phospholipid fatty acid content by mass spectrometry in lipo-intoxicated hem1Δ yeasts; format: cell-based, Saccharomyces cerevisiae; conditions: hem1Δ, SFA accumulation, 100 μM compound; for production of di-unsaturated phospholipids (level of PC species 36:2): 7 h
Description: The hem1Δ yeasts were cultivated in standard conditions (control) or in conditions of SFA accumulation without (Ø) or with the addition of 100 μM of oleic acid, LPA or OAG as indicated.
FIG. 6A—After 7 h of incubation, the phospholipids (PL) were extracted and the different species of phosphatidylcholine (PC), which constitute the predominantly present PL were analyzed by mass spectrometry in positive mode, according to Pineau et al. (2008).
FIG. 6B—All the species of PL detectable in these conditions of mass spectrometry were analyzed to globally quantify the content in SFA forms.
The hem1Δ strain is cultivated in a YPG^A, YPG^+ or YPG^+ liquid medium+200 μM of compound to be tested in aerobic conditions, under stirring and at 28° C. for 7 h, starting from an initial cell concentration of 2·10^6 cells/mL. At the end of the culture, 10^8 cells are collected in order to carry out the extraction of the total lipids. After the cells have been put in suspension in 1 mL of distilled water at 4° C., 500 μL of glass beads (Ø 0.6 mm) are added and the whole mixture then undergoes three sequences of 20 seconds at 5000 rpm in a stirrer (the tubes are kept on ice between each of the three sequences). The cellular lysate then obtained, complemented with water for rinsing the beads (1 mL), is then transferred into a 40 mL glass tube (Corex™) and then the lipids are extracted by using a methanol:chloroform ratio of 2:1 (v/v). Initially, 6 mL of methanol are added and the entire mixture is vortexed for 30 seconds and then incubated for 15 minutes at 65° C. Once the mixture has been cooled to ambient temperature, […] of chloroform is added and then the entire mixture is again vortexed for 30 seconds before allowing the extraction to take place for 16 h. Subsequently, the sample is centrifuged for 12 minutes at 10000 g and then the supernatant is transferred into a new Corex™ tube. After the addition of 2 mL of chloroform and then 4 mL of distilled water, the entire mixture is vortexed for 30 seconds and then centrifuged for 8 minutes at 3000 g. After elimination of the resultant upper phase, the lower organic phase is collected in a hemolysis tube made of glass. Finally, the solvent is evaporated under a nitrogen stream at 80° C. to obtain total cell lipid samples.
The samples of total cell lipids are put back into suspension in 1 mL of dichloromethane in being vortexed for 30 seconds. The entire mixture is deposited on a silica column (BOND ELUT-SI, 100 mg 1 mL) preconditioned with 3 mL of methanol and then 2 mL of dichloromethane successively. The fraction retained by the column is then washed with 2 mL of dichloromethane and then 2 mL of acetone successively. Finally, 2 mL of a mixture of chloroform/methanol/water 50:45:5 (v/v/v) are deposited on the column and the phospholipids thus eluted are collected in a glass hemolysis tube. The solvent is evaporated under nitrogen at 80° C. to obtain the samples of cellular phospholipids.
Once put back into suspension in 100 μL of mixture Mix^− (isopropanol/acetonitrile/water 2:1:1 (v/v/v)+triethylamine 1% (v/v)) or mixture Mix^+ (isopropanol/acetonitrile/water 2:1:1 (v/v/v)+formic acid 1% (v/v)), the samples are analyzed by mass spectrometry (Electro Spray Ionization-Mass Spectrometry (ESI-MS)) in negative or positive mode respectively and the results obtained serve to analyze the fatty acid content of the different species of phospholipids.

SMILES	toxicity for cells that do not synthesize triglycerides (QM strain)	haloes of growth inhibition (absence of colonies) (QM strain)	production of di-unsaturated phospholipids (level of PC species 36:2) (hem1Δ yeasts)	index of saturation of phospholipids compared with control condition (hem1Δ yeasts)
CCCCCCCC/C=C\CCCCCCCC(=O)OC[C@@H](O)COP(=O)(O)O [LPA, 1-oleoyl-sn-glycerol-3-phosphate]	not toxic	not observed	increase of the level of this species	–
CCCCCCCC/C=C\CCCCCCCC(=O)OC[C@H](CO)OC(C)=O [OAG, 1-oleoyl-2-acetyl-sn-glycerol]	not toxic	not observed	does not restore the production; also recorded: not the case	does not restore an index of saturation comparable to the one observed in the control condition
